Data from US20220128542A1, “TREATMENT EFFICIENCY EVALUATION” (TX MEDIC AB, priority 2019, published 2022).

Test system: brain of rats subjected to closed-head diffuse severe TBI (sTBI)
Test: HPLC of energy metabolites, antioxidants and oxidative/nitrosative stress biomarkers in brain, dose study after sTBI (Example 3)
Assay type: in vivo, rat
Conditions: for NAD^+/NADH ratio in brain homogenate: calculated, adimensional, rats 7 days post-sTBI
Excerpt: Male Wistar rats (n=160) of 300-350 g body weight were used in this study.
1994, 80: 291-300. This model causes diffuse axonal injury and it is able to reproduce the physical and mechanical characteristics of the diffuse TBI in humans.
Rats were placed prone on a bed of specific polyurethane foam inserted in a special container. This foam dissipates the major part of the potential energy (deriving from the mechanical forces) and prevents any rebound of the animal after the impact that could produce spinal damages.
These time points are coincident with the worst biochemical derangement (2 days) or, in the case of a mildly injured brain, with a full metabolic recovery (7 days).
The drug treatment consisted in a subcutaneous injection of 0.5 ml of LMW-DS (Tikomed) and administered at 3 different concentrations (1, 5 and 15 mg/kg body weight), according to the schematic protocol described below.
Sham-operated animals underwent the same procedure of anesthesia but TBI and were used as the control group.
Rats used in this study were divided into 4 groups in order to carry out a study on the efficacy of three different concentrations of LMW-DS at two different times post TBI. As subsequently specified, in each group there were animals subjected to a specific treatment for metabolic analyses and other animals intended to histo-morphological studies, according to the procedures described below.
Rats subjected to sTBI and receiving a single administration of LMW-DS after 30 minutes post-TBI, with sacrifice at 2 days post-TBI. Animals were divided in the following subgroups:
Rats subjected to sTBI and receiving a single administration of LMW-DS after 30 minutes post-TBI, with sacrifice at 7 days post-TBI. Animals were divided in the following subgroups:
Rats (n=12) subjected to sTBI and receiving repeated administrations of the maximal dose of LMW-DS (15 mg/kg b.w.) after 30 minutes, 3 days and 5 days post-TBI, with sacrifice at 7 days post-TBI. Four additional rats were used for the histo-morphological studies. Total rats in this group: n=16
To minimize metabolite loss, an in vivo craniectomy was performed in all animals during anesthesia. The rat skull was carefully removed, the brain was exposed, sharply cut along the sagittal fissure and the two hemispheres were separated. The hemispheres dedicated to biochemical analyses were freeze-clamped by aluminum tongues pre-cooled in liquid nitrogen and then immersed in liquid nitrogen. The freeze-clamping procedure was introduced to accelerate freezing of the tissue, thus minimizing potential metabolite loss.
Tissue homogenization for metabolite analyses was effected as described below. After the wet weight (w.w.) determination, the frozen hemispheres were placed into 7 ml of ice-cold, nitrogen-saturated, precipitating solution (1:10 w/v) composed by CH3CN+10 mM KH2PO4, pH 7.40, (3:1; v:v), and the homogenization was performed using an Ultra-Turrax homogenizer set at 24,000 rpm/min (Janke & Kunkel, Staufen, Germany). After centrifugation at 20,690×g, for 10 min at 4° C., the clear supernatants were saved, pellets were supplemented with an aliquot of 10 mM KH2PO4 and homogenized again as described above and saved overnight at −20° C. in order to obtain a complete recovery of aqueous phase from tissue. A second centrifugation was performed (20,690×g, for 10 min at 4° C.) and supernatants combined with those previously obtained were extracted by vigorous agitation with a double volume of HPLC-grade CHCl3 and centrifuged as above.

[1] = 1 mg/kg b.w. single, 30 min after trauma, 2 days post-TBI
[2] = 1 mg/kg b.w. single, 30 min after trauma, 2 days post-sTBI
[3] = 5 mg/kg b.w. single, 30 min after trauma, 2 days post-TBI
[4] = 5 mg/kg b.w. single, 30 min after trauma, 2 days post-sTBI
[5] = 15 mg/kg b.w. single, 30 min after trauma, 2 days post-sTBI
[6] = rats 2 days post-TBI, single 1 mg/kg b.w. 30 min after trauma
[7] = rats 2 days post-TBI, single 5 mg/kg b.w. 30 min after trauma
[8] = rats 2 days post-TBI, single 15 mg/kg b.w. 30 min after trauma

With sodium salt of dextran sulfate [LMW-DS] the NO2 brain concentration [1] was 158.36 ± 19.08 nmol/g w.w, the acetyl-CoA brain concentration [1] was 27.74 ± 3.23 nmol/g w.w and the “ascorbic acid brain concentration” value [1] was 2567.35 ± 147.76 nmol/g w.w. The AMP brain concentration [2] was 62.04 ± 7.46 nmol/g w.w, the CMP brain concentration [2] was 29.39 ± 6.00 nmol/g w.w and the CTP brain concentration [2] was 33.01 ± 7.63 nmol/g w.w. The “GDP glucose brain concentration” value [2] was 65.66 ± 41.61 nmol/g w.w, the GMP brain concentration [2] was 205.06 ± 25.74 nmol/g w.w and the IMP brain concentration [2] was 45.97 ± 8.65 nmol/g w.w. For the same substance, the “NAD^+/NADH ratio (adimensional)” value [2] was 33.91 ± 9.32, the UDP-Gal brain concentration [2] was 118.50 ± 9.89 nmol/g w.w and the UDP-GalNac brain concentration [2] was 21.24 ± 3.13 nmol/g w.w. For the same substance, the UDP-Glc brain concentration [2] was 45.14 ± 6.68 nmol/g w.w, the UDP-GlcNac brain concentration [2] was 96.62 ± 8.80 nmol/g w.w and the UMP brain concentration [2] was 148.04 ± 20.45 nmol/g w.w. It also gave a UTP brain concentration [2] of 104.07 ± 16.34 nmol/g w.w, a GSH brain concentration [3] of 2067.79 ± 301.54 nmol/g w.w and an NO2 brain concentration [3] of 218.12 ± 26.28 nmol/g w.w. The NO3 brain concentration [3] was 148.41 ± 32.30 nmol/g w.w, the acetyl-CoA brain concentration [3] was 34.85 ± 4.05 nmol/g w.w and the “ascorbic acid brain concentration” value [3] was 2626.68 ± 151.17 nmol/g w.w. The AMP brain concentration [4] was 67.03 ± 11.85 nmol/g w.w, the CTP brain concentration [4] was 37.72 ± 7.63 nmol/g w.w and the GDP brain concentration [4] was 183.27 ± 25.32 nmol/g w.w. The “GDP glucose brain concentration” value [4] was 83.81 ± 37.35 nmol/g w.w, the “NAD^+ brain concentration” value [4] was 376.85 ± 64.15 nmol/g w.w and the “NAD^+/NADH ratio (adimensional)” value [4] was 36.61 ± 6.09. The UDP-GalNac brain concentration [4] was 20.75 ± 3.06 nmol/g w.w, the UTP brain concentration [4] was 142.82 ± 22.43 nmol/g w.w and the GSH brain concentration (15 mg/kg b.w. single, 30 min after trauma, 2 days post-TBI) was 2418.94 ± 352.75 nmol/g w.w. The ADP-ribose brain concentration [5] was 23.06 ± 4.63 nmol/g w.w, the AMP brain concentration [5] was 66.26 ± 10.74 nmol/g w.w and the CTP brain concentration [5] was 37.53 ± 7.59 nmol/g w.w. For the same substance, the GDP brain concentration [5] was 194.61 ± 26.88 nmol/g w.w, the “GDP glucose brain concentration” value [5] was 84.24 ± 37.54 nmol/g w.w and the GMP brain concentration [5] was 178.88 ± 22.46 nmol/g w.w. For the same substance, the NADPH brain concentration [5] was 8.93 ± 0.74 nmol/g w.w, the “NADP^+ brain concentration” value [5] was 17.75 ± 4.06 nmol/g w.w and the “NAD^+ brain concentration” value [5] was 475.32 ±80.91 nmol/g w.w. For the same substance, the “NAD^+/NADH ratio (adimensional)” value [5] was 44.40 ± 7.67, the UDP brain concentration [5] was 80.00 ± 8.20 nmol/g w.w and the UDP-GalNac brain concentration [5] was 22.37 ± 3.30 nmol/g w.w. It also gave a UDP-Glc brain concentration [5] of 43.41 ± 6.43 nmol/g w.w, a UDP-GlcNac brain concentration [5] of 108.74 ± 9.90 nmol/g w.w and a UMP brain concentration [5] of 147.53 ± 20.38 nmol/g w.w. The UTP brain concentration [5] was 108.21 ± 16.99 nmol/g w.w, the “concentrations of ascorbic acid and reduced glutathione (GSH)” value (2 days post impact) was “significantly ameliorated” and the “NAA concentration (FIG. 7)” value (2 days post impact, 5 or 15 mg/kg b.w.) was “significantly higher than values found in sTBI rats”. For the same substance, the “concentrations of UTP and ADP” value (2 days post-sTBI) was “No effects”, the nicotinic coenzyme pool (2 days post-sTBI, 15 mg/kg b.w.) was “significant protection” and the Acetyl-CoA (2 days post-sTBI, 5 or 15 mg/kg b.w.) was “partial rescue”. The “high energy phosphates (ATP, GTP, and CTP)” value (2 days post-sTBI, all three dosages (1, 5, 15 mg/kg)) was “Significantly higher values”, the “ATP level, decrease versus value of controls” value (7 days post impact, untreated sTBI 35% decrease) was 16% and the “NAA concentration, decrease versus value of controls” value (7 days post impact, untreated sTBI 48% lower) was 16%. For the same substance, the “NAD+ level and NAD/NADH ratio” value (7 days post injury, single and repeat 15 mg/kg b.w.) was “normalize”, the “NAA (FIG. 11)” value (7 days post sTBI, increasing single doses or repeat maximal dose) was “dose dependent increase” and the “CoA-SH and Acetyl-CoA” value (7 days post-sTBI, 5 or 15 mg/kg b.w. (single and repeat)) was “Remarkable positive effects”. For the same substance, the “ATP (FIG. 8)” value (7 days post-sTBI, any dose tested) was “significant increases”, the “NAD^+/NADH ratio in brain homogenate” value (repeated 15 mg/kg b.w.) was 37.47 ± 9.46 and the “NAD^+/NADH ratio in brain homogenate” value (single 1 mg/kg b.w.) was 33.91 ± 9.32. For the same substance, the “NAD^+/NADH ratio in brain homogenate” value (single 5 mg/kg b.w.) was 33.90 ± 7.19, the “ADENOSINE concentration in brain homogenate” value [6] was 68.91 ± 16.50 nmol/g w.w and the “CDP choline concentration in brain homogenate” value [6] was 8.23 ± 1.22 nmol/g w.w. For the same substance, the “CREATININE concentration in brain homogenate” value [6] was 17.66 ± 3.29 nmol/g w.w, the “CYTIDINE concentration in brain homogenate” value [6] was 13.79 ± 2.49 nmol/g w.w and the “CYTOSINE concentration in brain homogenate” value (shortened to “CYTOSINE concentration”) [6] was 13.47 ± 1.65 nmol/g w.w. The “URACIL concentration in brain homogenate” value [6] was 17.18 ± 3.36 nmol/g w.w, the “CYTOSINE concentration” value [7] was 13.65 ± 1.67 nmol/g w.w and the “URACIL concentration in brain homogenate” value [7] was 17.83 ± 3.48 nmol/g w.w. The “URIDINE concentration in brain homogenate” value [7] was 117.21 ± 20.64 nmol/g w.w, the “XANTHINE concentration in brain homogenate” value [7] was 6.71 ± 0.70 nmol/g w.w and the “ADENOSINE concentration in brain homogenate” value [8] was 53.25 ± 12.75 nmol/g w.w. The “CDP choline concentration in brain homogenate” value [8] was 7.07 ± 1.05 nmol/g w.w, the “CYTIDINE concentration in brain homogenate” value [8] was 11.46 ± 2.07 nmol/g w.w and the “CYTOSINE concentration” value [8] was 13.57 ± 1.66 nmol/g w.w.
